Experimental findings from PubChem BioAssay (NCI) are described below.

Structures are written as SMILES. “And” between values parts separate entries of the source, which are not always exact repeats. Equal values may be shown once.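 How tested: cells in 96-well plates exposed to compound for 48 hours at five concentrations. TGI: concentration producing complete growth inhibition.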

Holding throughout (assay): NCI anticancer screen, dose series, 48 h
Test [1] relates to CAKI-1 renal.
Test [2] deals with SK-MEL-28 melanoma.
Test [3] relates to HS 578T breast.
Test [4] deals with MCF7 breast.
The test system of test [5] is SNB-75 CNS.
The subject of test [6] is HCT-15 colon.
Test [7] concerns SK-OV-3 ovarian.
Test [8] deals with HCC-2998 colon.
In test [9] the test system is HOP-62 NSCLC.
Test [10] relates to OVCAR-4 ovarian.

In the case of `O=C(C/C(=N/O)C(F)(F)F)c1cccs1`, the TGI in test [1], in test [2], in test [3], in test [4], in [5] and in [6] was more than 100 µM in each case. In addition, the TGI in test [7], in test [8], in test [9] and in test [10] was more than 100 µM throughout.

In the case of `O=[N+]([O-])c1cc2ccc(N(CCO)CCO)nc2nc1N(CCO)CCO`, the TGI in [1], in test [2], in test [3], in test [4], in test [5] and in [6] was more than 100 µM in each case. In addition, the TGI in [7], in test [8], in [9] and in [10] was more than 100 µM each time.

On to `COC(=O)[C@]1(c2cc3ccccc3[nH]2)CC2CN(C(=O)OCc3ccccc3)C1CC2=O` (stereo not given in full), for which the TGI in test [1] is more than 100 µM; in test [2], more than 100 µM; in test [3] it was 62.4 µM; in [4], 35.5 µM; in [5], 64.6 µM; in test [6] it was more than 100 µM. Also, the TGI in [7], in [8], in test [9] and in [10] was more than 100 µM throughout.

With `Nc1ccc2ccc(N3CCNCC3)nc2n1`, the TGI in [1], in test [2], in [3], in [4], in test [5] and in [6] was more than 100 µM each time. The TGI in test [7], in test [8], in [9] and in test [10] was more than 100 µM throughout.

In the case of `Nn1c(=O)[nH]c2ncn(Cc3ccccc3)c2c1=O`, the TGI in test [1], in test [2], in test [3], in test [4], in [5] and in test [6] was more than 100 µM each time. The TGI in test [7], in test [8], in test [9] and in test [10] was more than 100 µM in each case.

Regarding `Cc1[nH]c2ccccc2c1/C=N/NC(=O)c1cccc(I)c1`, the TGI stood at 50.4 µM in [1]; 76.3 µM in test [2]; 89.8 µM in test [3]; 61.7 µM in [4]; 54.5 µM in test [5]; 84.5 µM in test [6]. The TGI in test [7] is 93.5 µM; in test [8], 36.1 µM; in test [9], 41 µM; in test [10] it was 43.2 µM.

Turning to `COc1ccc(NC(C(N)=O)c2cc3cc(Br)ccc3nc2Cl)cc1` (stereo not given), the TGI in [1], in test [2], in [3], in [4], in [5] and in [6] was more than 100 µM each time. Moreover, the TGI in test [7], in test [8], in [9] and in test [10] was more than 100 µM each time.

As for `COc1c(Br)cc2ccccc2c1-c1c(OC)c(Br)cc2ccccc12`, the TGI in [1], in test [2], in test [3], in test [4], in test [5] and in [6] was more than 100 µM each time. Also, the TGI in [7], in test [8], in test [9] and in test [10] was more than 100 µM throughout.

Turning to `N/C(=N\Nc1ccc(Cl)cc1)c1cnccn1`, the TGI in test [1], in test [2], in test [3], in test [4], in test [5] and in [6] was more than 100 µM throughout. Moreover, the TGI in test [7] was more than 100 µM; in test [8], 79.1 µM; in [9], more than 100 µM; in test [10] it was more than 100 µM.

On to `COC(=O)CNC(=O)CCC(C)[C@H]1CCC2C3C(C[C@H](OC(C)=O)[C@@]21C)[C@@]1(C)CCC2(C[C@H]1C[C@H]3OC(C)=O)OOC1(CC[C@]3(C)C4C[C@H](OC(C)=O)[C@@]5(C)C(CC[C@@H]5C(C)CCC(=O)NCC(=O)OC)C4[C@H](OC(C)=O)C[C@@H]3C1)OO2` (stereo not given in full), for which the TGI is 6.96 µM in test [1]; 9.52 µM in test [2]; 2.37 µM in test [3]; more than 50 µM in test [4]; 5.17 µM in test [5]; 5.42 µM in test [6]. The TGI in [7] is 13.9 µM; in test [8], 1.86 µM; in test [9], 1.52 µM; in test [10], 13.3 µM.

Turning to `O=c1c2cnccc2cc2c3ccccc3ccn12`, the TGI in [1], in test [2], in [3], in test [4], in test [5] and in test [6] was more than 100 µM each time. In addition, the TGI in [7], in test [8], in test [9] and in [10] was more than 100 µM throughout.

Consider `COc1ccc(-c2ncn(C[Si](C)(C)C)c2-c2ccc(OC)cc2)cc1`, for which the TGI in test [1] worked out at 21.9 µM; in [2], 14.8 µM; in test [3], 37.1 µM; in [4], 31.1 µM; in test [5], 28.3 µM; in test [6], 18.3 µM. Further, the TGI amounted to 36.9 µM in [7], 7.34 µM in [8], 30.7 µM in test [9] and 25.6 µM in test [10].

As for `CN(CCCNC(=O)c1nn(C)c2c1Cc1ccccc1-2)CCCNC(=O)c1nn(C)c2c1Cc1ccccc1-2`, the TGI was 35.5 µM in [1]; 38.2 µM in test [2]; 42.1 µM in test [3]; 31.2 µM in [4]; 31.5 µM in test [5]; 40.4 µM in test [6]. Also, the TGI amounted to 34.1 µM in test [7], 23.5 µM in [8], 26.8 µM in [9] and 32.5 µM in test [10].

For `O[C@@H]1CCC[C@@H]2NC[C@@H](c3ccc4c(c3)OCO4)[C@H]12`, the TGI in test [1], in [2], in [3], in test [4], in test [5] and in test [6] was more than 100 µM each time. Also, the TGI in [7], in test [8], in [9] and in [10] was more than 100 µM throughout.

For `CCCCCCCCP(=O)(O)OP(=O)(O)OCC1OC(n2ccc(N)nc2=O)C(O)C1O` (stereo not given), the TGI in test [1], in test [2], in test [3], in [4], in test [5] and in test [6] was more than 100 µM each time. Also, the TGI in test [7], in [8], in test [9] and in test [10] was more than 100 µM throughout.

In the case of `Cc1ccc(S(=O)(=O)N/N=C2\CC3CC4CCC2C4C3)cc1` (stereo not given), the TGI in test [1], in [2], in test [3], in [4], in test [5] and in [6] was more than 100 µM each time. For the same molecule, the TGI in test [7], in [8], in [9] and in test [10] was more than 100 µM each time.

Turning to `C=CCOC(=O)N1c2ccc(O)cc2[C@@]23O[C@@]24[C@@H]1C#C/C=C\C#C[C@]3(O)C(OC)(OC)C[C@@H]4C`, the TGI was more than 100 µM in [1]; more than 100 µM in test [2]; 90.9 µM in test [3]; 98.2 µM in [4]; 45.9 µM in test [5]; more than 100 µM in [6]. Also, the TGI in test [7] was more than 100 µM; in test [8] it was more than 100 µM; in test [9], 85.9 µM; in [10], 47.2 µM.

For `Cc1ccc(N=Nc2c(O)ccc3cc(S(=O)(=O)O)ccc23)cc1`, the TGI is > 100 µM and 80.8 µM in [1]; more than 100 µM in test [2]; more than 100 µM in test [3]; more than 100 µM in test [4]; more than 100 µM in [5]; more than 100 µM in [6]. In addition, the TGI in test [7], in test [8], in [9] and in test [10] was more than 100 µM in each case.

Turning to `COC(=O)c1c(C)cccc1C1CN=NC12Cc1cc(C)cc(C)c1C2=O` (stereo not given), the TGI in test [1] is more than 100 µM; in test [2], more than 100 µM; in test [3] it was more than 100 µM; in test [4] it was 29.1 µM; in test [5], 99.3 µM; in test [6] it was more than 100 µM. Besides, the TGI in test [7] is more than 100 µM; in [8], 68 µM; in [9] it was more than 100 µM; in test [10], more than 100 µM.

`Cc1c(C)c(C)c(-n2c(=O)n(C)c(=O)n2-c2cc(C(C)(C)C)cc(C(C)(C)C)c2O)c(C)c1C`: the TGI in test [1] was 28.5 µM; in test [2] it was 28 µM; in test [3] it was 31.9 µM; in test [4], 16.6 µM; in [5], 16.9 µM; in test [6] it was 22.5 µM. Besides, the TGI was 25.2 µM in [7], 24.6 µM in [8], 28 µM in test [9] and 21.4 µM in test [10].

Regarding `C=CCOC(OCC=C)/C(Br)=C/C`, the TGI in test [1] was more than 100 µM; in [2] it was more than 100 µM; in test [3], 72.2 µM; in test [4], more than 100 µM; in [5], more than 100 µM; in [6], 89.3 µM. In addition, the TGI in [7] was more than 100 µM; in [8] it was more than 100 µM; in test [9], more than 100 µM; in test [10], 63.7 µM.

With `CO/N=C(\C([O-])=N\[n+]1cnn(CC(=O)OC(C)(C)C)c1)c1csc(NC(c2ccccc2)(c2ccccc2)c2ccccc2)n1`, the TGI in [1], in test [2], in [3], in [4], in [5] and in test [6] was more than 10 µM each time. In addition, the TGI in test [7], in [8], in test [9] and in test [10] was more than 10 µM each time.

As for `COC(=O)C1=C(C(=O)OC)C(N(C)C)C(C(=O)OC)=C(C(=O)OC)S1`, the TGI in test [1], in [2], in test [3], in test [4], in test [5] and in test [6] was more than 100 µM throughout. Also, the TGI in [7], in test [8], in [9] and in test [10] was more than 100 µM in each case.
